Reference: patent US20240327439A1, “PHARMACOLOGICAL AGENTS FOR PREVENTING AND TREATING CATARACTS AND PRESBYOPIA EYE DISEASES” (Plex Pharmaceuticals, Inc., priority 2021, published 2024)

System: Bovine lens lysates
Assay: Prevention of UVC/H2O2-induced aggregation (opacification) of bovine lens extracts
Format: biochemical
Details: bovine lens lysates 2 mg/ml, various concentrations of compound, UV-irradiated, vs vehicle 0.5% DMSO
Description: Bovine lens lysates (2 mg/ml, 50 μl) were incubated with various concentrations of CAP1160 (structure shown below) or a vehicle (0.5% DMSO), and then left unexposed (no exposure) or exposed to UV (UV-irradiated). At various time points, wells-containing bovine lens lysates were pictured and the corresponding absorbance at 600 nm (A600) was measured. Representative brightfield images of wells taken 7 min after initial UV exposure (FIG. 1A) and corresponding A600 (FIG. 1B).

For `Cc1ccc(C(=O)c2cc(O)c(O)c([N+](=O)[O-])c2)cc1` [CAP1160], the “opacification of bovine lens protein lysates induced by UV irradiation (absorbance at 600 nm, brightfield images)” value was “delays, in a dose-dependent manner, the opacification”.
